Assay results from US20050009132A1, “Culture medium for detecting and/or discriminating enterococcus and method therefor” (priority 2001, published 2005).

System: Gram-positive bacteria
Assay: Addition of Crystal Violet to culture medium, growth inhibition of Gram-positive bacteria
Assay type: cell-based
Conditions: concentration as low as

## CN(C)c1ccc(C(=C2C=CC(=[N+](C)C)C=C2)c2ccc(N(C)C)cc2)cc1 [Crystal Violet]
  Crystal Violet concentration at which inhibition of the growth of a large quantity of Gram-positive bacteria is observed: 0.1 mg/L
